Tests used:
anticholinergic effects = assay: anticholinergic effects
[1] = plasma concentration / oral absorption in rats; format: in vivo, rat
Experimental: This is supported by the observations of plasma concentrations of 3 to 7 μg/ml one hour after oral administration of III, 50 to 300 mg/kg.

blood glucose = blood glucose levels in fasted rats; format: in vivo, rat; settings: oral, 10, 30 or 100 mg/kg; fasted 24 hours
[2] = tested on: phenylbutazone gastric ulcer; assay: phenylbutazone gastric ulcer model; format: in vivo; settings: po
Excerpt: Miller et al., Gut 20, 75 (1979); Robert et al., Gastroenterology 72, 1121 (1977).] aptly characterizes the effects of compound III.

human lymphocytes = assay: chromosomal breakage in human lymphocytes in vitro; format: cell-based; settings: 1000, 100, 10 or 0 μg/ml
histamine and serotonin = assay: cutaneous permeability caused by intradermal exogenous histamine and serotonin; format: in vivo, rat
Experimental: The ability of agents to interfere with PCA reactions is measured in male Charles River Wistar rats, 170-210 g. Reaginic antiserum, rich in IgE antibodies, is prepared according to Petillo et al., Int. Arch. Allergy, 44, 309 (1973). Hyperimmune antiserum rich in IgG antibodies to hen egg albumin is prepared according to Orange et al., J. Exptl. Med., 127, 767 (1968). Forty-eight hours prior to antigen challenge, the reaginic antiserum is injected intradermally (i.d.) into the shaved skin of a normal rat's back; 5 hours before challenge the hyperimmune antisera is similarly injected. At a third site 60 mcg. histamine dihydrochloride and 0.5 mcg. serotonin creatinine sulfate are injected i.d. just prior to antigen challenge as a check for antihistaminic, antiserotonin and unspecific types of blockage; the compounds of the instant invention or saline are then administered i.v. and immediately followed by the challenge of 5 mg. egg albumen and 2.5 mg. Evans' Blue dye in saline. In the case of oral administration Evans' Blue dye and egg albumin are given 5 minutes after administration of the drug. Thirty minutes later the animals are asphyxiated using chloroform and the skin of the back removed and reversed for observation. […] The difference is expressed as percent blockage due to the compound employed.

bone marrow = assay: chromosomal damage in bone marrow of mice; format: in vivo, mouse; settings: single oral dose 40 mg/kg; 6, 12 or 24 hours
Experimental: Single oral doses of III, 40 mg/kg, were administered to groups of mice who were sacrificed 6, 12 or 24 hours later. […] From these findings, it is evident that III has no obvious mutagenic potential.

IgE = assay: passive cutaneous anaphylaxis (PCA) test, oral, IgE (reaginic antiserum) site; format: in vivo, rat; settings: Table I, 1 mg./kg.
Experimental: The antiallergy property of the compounds of this invention is evaluated by the passive cutaneous anaphylaxis (PCA) test (Ovary, J. Immun., 81, 355, 1958). In the PCA test, normal animals are injected intradermally (i.d.) with antibodies contained in serum obtained from actively sensitized animals. The animals are then challenged intravenously with antigen mixed with a dye such as Evans' Blue. The increased capillary permeability caused by the antigen-antibody reaction causes the dye to leak from the site of the antibody injection. The test animals are then asphyxiated and the intensity of the reaction determined by measuring the diameter and intensity of the blue coloration on the inner surface of the animals' skin.
The PCA test is a measure of the anti-allergic (especially anti-asthmatic) activity of a compound. Compounds which inhibit a positive PCA test induced by the rat immunochemical counterpart of human immunoglobulin E (IgE), or reagin, are considered to have anti-allergic activity (C. Mota, Ann. N.Y. Acad. Sci., 103, 264 1963). (Reagin is primarily immunoglobulin E [IgE] and is the principal immunoglobulin responsible for allergic asthma, anaphylaxis, hay fever, food sensitivities and certain manifestations of drug sensitivities, although recent evidence ascribes to the IgG class of antibodies a significant role in the mediation of allergic diseases). Such compounds when administered to a sensitized subject, human or animal, prior to the time when the subject comes into contact with antigens or substances to which it is allergic, will prevent the allergic reaction which would otherwise occur. They, therefore, provide a method for the prophylactic treatment of allergy or anaphylactic reactions of a reagin mediated nature.
To put it another way, such compounds block the release of mediators resulting from the antigen-antibody (allergic) reaction as illustrated in the PCA test using rat homocytotropic antibody--a known correlate of human reaginic antibody. Inhibition of reaginic antigen-antibody reactions in rats, the test animal of the PCA test, is regarded as representative of inhibition of human reaginic antigen-antibody reactions which occur during allergic episodes.
The ability of agents to interfere with PCA reactions is measured in male Charles River Wistar rats, 170-210 g. Reaginic antiserum, rich in IgE antibodies, is prepared according to Petillo et al., Int. Arch. Allergy, 44, 309 (1973). Hyperimmune antiserum rich in IgG antibodies to hen egg albumin is prepared according to Orange et al., J. Exptl. Med., 127, 767 (1968). Forty-eight hours prior to antigen challenge, the reaginic antiserum is injected intradermally (i.d.) into the shaved skin of a normal rat's back; 5 hours before challenge the hyperimmune antisera is similarly injected. At a third site 60 mcg. histamine dihydrochloride and 0.5 mcg. serotonin creatinine sulfate are injected i.d. just prior to antigen challenge as a check for antihistaminic, antiserotonin and unspecific types of blockage; the compounds of the instant invention or saline are then administered i.v. and immediately followed by the challenge of 5 mg. egg albumen and 2.5 mg. Evans' Blue dye in saline. In the case of oral administration Evans' Blue dye and egg albumin are given 5 minutes after administration of the drug. Thirty minutes later the animals are asphyxiated using chloroform and the skin of the back removed and reversed for observation. A score is assigned each injection site equal to the product of the diameter of the site in mm. and a grade of 0.1, 0.5, 1, 2, 3 or 4 proportional to intensity of dye coloration. The scores for a given injection site are summed for each group of five animals and compared to the saline treated controls. The difference is expressed as percent blockage due to the compound employed. […]

[3] = acute subcutaneous toleration in mice; settings: mouse, in vivo, sc; subcutaneous, mice
Experimental: (§1) Compound III was administered subcutaneously to mice at doses of 100, 300 or 1000 mg/kg.

mice = assay: acute subcutaneous toleration in mice; settings: mouse, in vivo
Experimental: as §1

O=C(Nc1nnn[nH]1)c1cnc2sc3c(n2c1=O)CCCC3 [compound III, N-(5-tetrazolyl)-1-oxo-1H-cyclohexenothiazolo[3,2-a]pyrimidine-2-carboxamide]
anticholinergic effects (anticholinergic effects): no significant anticholinergic effects | concentration at 1 h ([1]; plasma, rat, one hour, oral 50 to 300 mg/kg, read-out: plasma concentration one hour after oral administration, rat): 3000 to 7000 ng/mL | oral absorption, rat ([1]; ratio of comparably effective oral and intravenous doses in rat PCA test): good oral absorption | changes in blood glucose levels (blood glucose): did not exhibit any changes in blood glucose levels | ED50 [2]: 0.2 mg/kg | chromosomal breakage in human lymphocytes (human lymphocytes): failed to reveal any significant drug-induced chromosomal breakage | changes in permeability caused by intradermal histamine and serotonin (histamine and serotonin; exogenous histamine and serotonin, intradermal): does not interfere with the changes in permeability | antihistaminic and antiserotonin effects (histamine and serotonin; rat, in vivo): absence of antihistaminic and antiserotonin effects | chromosomal damage in bone marrow, single dose (bone marrow): did not reveal any chromosomal damage | Oral Activity (% of Protection) of Amides in the PCA Test, IgE 1 mg./kg. (IgE): 47% | LD50 [3]: > 1000 mg/kg | symptoms or lethality (mice): No symptoms or lethality was observed

Source: patent US4414388A, “1-Oxo-1H-thiazolo[3,2-a]pyrimidine-2-carboxamides” (Pfizer Inc., priority 1981, dated 1983)
